Assays:
Botrytis cinerea [1] = assay: Botrytis cinerea (gray mold) mycelial radial growth on potato dextrose agar; type: cell-based; conditions: 168 h, 22° C., seven days, read-out: control compared to the untreated check
Description: (§1) The compounds were dissolved in 0.3% dimethyl sulfoxide and then added to potato dextrose agar medium just prior to dispensing it into petri dishes. 5 mL medium, with the compound in the desired concentration, was dispensed into 60 mm sterile petri-plates. After solidification, each plate was seeded with a 5 mm size mycelial disc taken from the periphery of an actively growing virulent culture plate. The plates were incubated in growth chambers at 22° C. temperature and 90% relative humidity for seven days and the radial growth was measured and compared to the one of the untreated control.

Botrytis cinerea [2] = assay: Botrytis cinerea liq. (BOTRCI) spore growth inhibition in liquid medium, 96-well microtiter plate, OD 405 nm; type: cell-based; conditions: spore suspension in YBA liquid medium, 22° C., 5-6 days, OD at 405 nm, read-out: control compared to the untreated check
Description: Yeast bacterial peptone and sodium acetate (YBA) liquid medium containing a BOTRCI (10^4 spores/ml) spore suspension was prepared. For the inhibition assay, each test compound was solved in dimethyl sulfoxide. 100 μl of the test compound in media-solution was added to a 96-well microtiter plate, consequently, the same volume (100 μl) of spore suspension was added to the well making the final test concentrations and the plate was incubated at 22° C. for 5-6 days. The growth inhibition was evaluated by measuring the OD at 405 nm. Percent inhibition was calculated with the below formula:
Where T=treatment, C=control, and B=blank

Botrytis cinerea [3] = assay: Botrytis cinerea test on tomato, preventive, greenhouse; type: in vivo; conditions: preventive spray on bean/chili plants (heading: tomato), inoculated one day after treatment, read-out: control (efficacy, disease severity) compared to the untreated check
Parastagonospora nodorum = Parastagonospora nodorum (PARANO) spore growth inhibition in liquid medium, 96-well microtiter plate, OD 600; type: cell-based; conditions: spore suspension in PDB liquid medium, 18° C., 5-6 days, OD at 600, read-out: control compared to the untreated check
Method in brief: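 Read-out is percent growth inhibition from OD at 600 after 5-6 days at 18° C. Compounds, dissolved in DMSO, were diluted in potato dextrose broth and combined in equal volume with a 10^5 spores/ml suspension of PARANO.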

Phytophthora infestans = assay: microbe, parasite or virus in culture; type: cell-based; conditions: 168 h, read-out: control compared to the untreated check
Phakopsora pachyrhizi = Phakopsora pachyrhizi test on soybean, preventive, greenhouse; type: in vivo; conditions: preventive spray on soybean, inoculated one day after treatment, read-out: control (efficacy, disease severity) compared to the untreated check
Method in brief: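 Greenhouse-grown young soybean plants were sprayed with compound (2% DMSO/acetone, emulsifier in water) at the stated rate. One day later they were inoculated with 2×10^5 P. pachyrhizi inoculum and held at 22-24 °C, 80-90% relative humidity for disease development.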

Pyricularia oryzae = assay: microbe, parasite or virus in culture; type: cell-based; conditions: 168 h, read-out: control compared to the untreated check
Colletotrichum capsici = Colletotrichum capsici (anthracnose) mycelial radial growth on potato dextrose agar; type: cell-based; conditions: Colletotrichum truncatum, 168 h, 25° C., seven days, read-out: control compared to the untreated check
Description: as §1, with “25°” for “22°”, “60%” for “90%”

CC(C)CC(C)(Cc1ccccc1)NC(=O)c1cnc2c(c1)c(C1CC1)cn2C (stereo not shown) [Compound 55, 3-cyclopropyl-N-(2,4-dimethyl-1-phenylpentan-2-yl)-1-methyl-1H-pyrrolo[2,3-b]pyridine-5-carboxamide]
≥ 70%: inhibition of growth at 300 ppm (Botrytis cinerea [1]) | inhibition of growth at 300 ppm (Botrytis cinerea [2]) | pest or weed control at 500 ppm (Botrytis cinerea [3])

COc1ccccc1CC(C)(C)NC(=O)c1cnc2c(c1)c(F)cn2C [Compound 72, 3-fluoro-N-(1-(2-methoxyphenyl)-2-methylpropan-2-yl)-1-methyl-1H-pyrrolo[2,3-b]pyridine-5-carboxamide]
≥ 70%: inhibition of growth at 300 ppm (Botrytis cinerea [1]) | inhibition of growth at 300 ppm (Botrytis cinerea [2])

Cn1ccc2cc(C(=O)NC3(C)Cc4ccccc4C3)cnc21 [Compound 78, 1-methyl-N-(2-methyl-2,3-dihydro-1H-inden-2-yl)-1H-pyrrolo[2,3-b] pyridine-5-carboxamide]
≥ 70%: inhibition of growth at 300 ppm (Botrytis cinerea [1]) | inhibition of growth at 300 ppm (Parastagonospora nodorum) | inhibition of growth at 300 ppm (Botrytis cinerea [2])

CN1CCOc2cc(C(=O)NC(C)(C)Cc3ccccc3)cnc21 [Compound 82, 4-methyl-N-(2-methyl-1-phenylpropan-2-yl)-3,4-dihydro-2H-pyrido[3,2-b] [1,4]oxazine-7-carboxamide]
≥ 70%: inhibition of growth at 300 ppm (Botrytis cinerea [1]) | inhibition of growth at 300 ppm (Parastagonospora nodorum) | inhibition of growth at 300 ppm (Botrytis cinerea [2])

Cn1ccc2ncc(C(=O)NC(C)(C)Cc3ccccc3)cc21 [Compound 86, 1-methyl-N-(2-methyl-1-phenylpropan-2-yl)-1H-pyrrolo[3,2-b] pyridine-6-carboxamide]
≥ 70%: inhibition of growth at 300 ppm (Phytophthora infestans) | inhibition of growth at 300 ppm (Parastagonospora nodorum) | pest or weed control at 500 ppm (Botrytis cinerea [3]) | pest or weed control at 500 ppm (Phakopsora pachyrhizi)

COc1nc2[nH]ccc2cc1C(=O)NC(C)(Cc1ccccc1)CC(C)C (stereo not shown) [Compound 89, N-(2,4-dimethyl-1-phenylpentan-2-yl)-6-methoxy-1H-pyrrolo[2,3-b]pyridine-5-carboxamide]
≥ 70%: inhibition of growth at 300 ppm (Botrytis cinerea [1]) | inhibition of growth at 300 ppm (Botrytis cinerea [2]) | pest or weed control at 500 ppm (Phakopsora pachyrhizi)

CC(C)(Cc1ccccc1)NC(=O)c1cnc2cc[nH]c2c1 [Compound 95, N-(2-methyl-1-phenylpropan-2-yl)-1H-pyrrolo[3,2-b] pyridine-6-carboxamide]
≥ 70%: inhibition of growth at 300 ppm (Phytophthora infestans) | inhibition of growth at 300 ppm (Parastagonospora nodorum) | pest or weed control at 500 ppm (Botrytis cinerea [3]) | pest or weed control at 500 ppm (Phakopsora pachyrhizi)

CC(C)CC(C)(Cc1ccccc1)NC(=O)c1cnc2[nH]c(=O)oc2c1 (stereo not shown) [Compound 98, N-(2,4-dimethyl-1-phenylpentan-2-yl)-2-oxo-2,3-dihydrooxazolo[4,5-b] pyridine-6-carboxamide]
≥ 70%: inhibition of growth at 300 ppm (Pyricularia oryzae) | inhibition of growth at 300 ppm (Botrytis cinerea [1]) | inhibition of growth at 300 ppm (Phytophthora infestans) | inhibition of growth at 300 ppm (Botrytis cinerea [2]) | pest or weed control at 500 ppm (Botrytis cinerea [3])

Cc1cc2cc(C(=O)NC(C)(C)C(C)(C)c3ccccc3)cnc2n1C [Compound 100, N-(2,3-dimethyl-3-phenylbutan-2-yl)-1,2-dimethyl-1H-pyrrolo[2,3-b]pyridine-5-carboxamide]
≥ 70%: inhibition of growth at 300 ppm (Pyricularia oryzae) | inhibition of growth at 300 ppm (Botrytis cinerea [1]) | inhibition of growth at 300 ppm (Parastagonospora nodorum) | inhibition of growth at 300 ppm (Botrytis cinerea [2]) | pest or weed control at 500 ppm (Botrytis cinerea [3])

CC(C)(NC(=O)c1cnc2ccsc2c1)C(O)Cc1ccccc1 (stereo not shown) [Compound 105, N-(3-hydroxy-2-methyl-4-phenylbutan-2-yl)thieno[3,2-b] pyridine-6-carboxamide]
≥ 70%: inhibition of growth at 300 ppm (Botrytis cinerea [1]) | inhibition of growth at 300 ppm (Phytophthora infestans) | inhibition of growth at 300 ppm (Parastagonospora nodorum) | inhibition of growth at 300 ppm (Botrytis cinerea [2])

CC(C)(C#N)NC(=O)c1cnc2ccsc2c1 [Compound 106, N-(2-cyanopropan-2-yl)thieno[3,2-b] pyridine-6-carboxamide]
≥ 70%: inhibition of growth at 300 ppm (Botrytis cinerea [1]) | inhibition of growth at 300 ppm (Parastagonospora nodorum) | inhibition of growth at 300 ppm (Botrytis cinerea [2]) | pest or weed control at 500 ppm (Botrytis cinerea [3]) | pest or weed control at 500 ppm (Phakopsora pachyrhizi)

CC(C)(COC(=O)c1ccccc1C(F)(F)F)NC(=O)c1cnc2c(c1)CCC2 [Compound 148, 2-(6,7-dihydro-5H-cyclopenta[b]pyridine-3-carboxamido)-2-methylpropyl 2-(trifluoromethyl)benzoate]
≥ 70%: inhibition of growth at 300 ppm (Botrytis cinerea [1]) | inhibition of growth at 300 ppm (Botrytis cinerea [2])

Cc1ccccc1C(=O)OCC(C)(C)NC(=O)c1cnc2c(c1)CCC2 [Compound 149, 2-(6,7-dihydro-5H-cyclopenta[b]pyridine-3-carboxamido)-2-methylpropyl 2-methylbenzoate]
≥ 70%: inhibition of growth at 300 ppm (Botrytis cinerea [1]) | inhibition of growth at 300 ppm (Parastagonospora nodorum) | inhibition of growth at 300 ppm (Botrytis cinerea [2])

C=C(C)CC(C)(COc1ccccc1F)NC(=O)c1cnc2ccsc2c1 (stereo not shown) [Compound 159, N-(1-(2-fluorophenoxy)-2,4-dimethylpent-4-en-2-yl)thieno[3,2-b] pyridine-6-carboxamide]
≥ 70%: inhibition of growth at 300 ppm (Botrytis cinerea [1]) | inhibition of growth at 300 ppm (Parastagonospora nodorum)

Cn1ccc2cc(C(=O)NC(C)(C)COCc3ccccc3F)cnc21 [Compound 187, N-(1-((2-fluorobenzyl)oxy)-2-methylpropan-2-yl)-1-methyl-1H-pyrrolo[2,3-b]pyridine-5-carboxamide]
≥ 70%: inhibition of growth at 300 ppm (Botrytis cinerea [1]) | inhibition of growth at 300 ppm (Colletotrichum capsici) | inhibition of growth at 300 ppm (Parastagonospora nodorum) | inhibition of growth at 300 ppm (Botrytis cinerea [2])

CC(C)(COCc1ccccc1F)NC(=O)c1cnc2ccsc2c1 [Compound 189]
≥ 70%: inhibition of growth at 300 ppm (Pyricularia oryzae) | inhibition of growth at 300 ppm (Botrytis cinerea [1]) | inhibition of growth at 300 ppm (Botrytis cinerea [2])

CC(C)(COCc1ccccc1F)NC(=O)c1cnc2c(c1)CCC2 [Compound 190, N-(1-((2-fluorobenzyl)oxy)-2-methylpropan-2-yl)-6,7-dihydro-5H-cyclopenta[b]pyridine-3-carboxamide]
≥ 70%: inhibition of growth at 300 ppm (Botrytis cinerea [1]) | inhibition of growth at 300 ppm (Colletotrichum capsici) | inhibition of growth at 300 ppm (Parastagonospora nodorum) | inhibition of growth at 300 ppm (Botrytis cinerea [2])

Cn1cc(Br)c2cc(C(=O)NC(C)(C)COCc3ccccc3F)cnc21 [Compound 194, 3-bromo-N-(1-((2-fluorobenzyl)oxy)-2-methylpropan-2-yl)-1-methyl-1H-pyrrolo[2,3-b]pyridine-5-carboxamide]
≥ 70%: inhibition of growth at 300 ppm (Botrytis cinerea [1]) | inhibition of growth at 300 ppm (Botrytis cinerea [2])

CC(C)(COc1ccccn1)NC(=O)c1cnc2c(c1)CCC2 [Compound 202, N-(2-methyl-1-(pyridin-2-yloxy)propan-2-yl)-6,7-dihydro-5H-cyclopenta[b]pyridine-3-carboxamide]
≥ 70%: inhibition of growth at 300 ppm (Phytophthora infestans) | inhibition of growth at 300 ppm (Botrytis cinerea [2])

CC(C)(COc1ccc(C#N)cn1)NC(=O)c1cnc2c(c1)CCC2 [Compound 223, N-(1-((5-cyanopyridin-2-yl)oxy)-2-methylpropan-2-yl)-6,7-dihydro-5H-cyclopenta[b]pyridine-3-carboxamide]
≥ 70%: inhibition of growth at 300 ppm (Phytophthora infestans) | inhibition of growth at 300 ppm (Parastagonospora nodorum) | inhibition of growth at 300 ppm (Botrytis cinerea [2])

Cn1ccc2cc(C(=O)NC(C)(C)COc3ccc(F)cn3)cnc21 [Compound 230, N-(1-((5-fluoropyridin-2-yl)oxy)-2-methylpropan-2-yl)-1-methyl-1H-pyrrolo[2,3-b]pyridine-5-carboxamide]
≥ 70%: inhibition of growth at 300 ppm (Colletotrichum capsici) | inhibition of growth at 300 ppm (Phytophthora infestans) | inhibition of growth at 300 ppm (Parastagonospora nodorum) | inhibition of growth at 300 ppm (Botrytis cinerea [2])

COc1nc2c(cc1C(=O)NC1(c3ccccc3)CC1)CCC2 [Compound 252, 2-methoxy-N-(1-phenylcyclopropyl)-6,7-dihydro-5H-cyclopenta[b]pyridine-3-carboxamide]
≥ 70%: inhibition of growth at 300 ppm (Botrytis cinerea [1]) | inhibition of growth at 300 ppm (Colletotrichum capsici) | inhibition of growth at 300 ppm (Phytophthora infestans) | inhibition of growth at 300 ppm (Parastagonospora nodorum) | inhibition of growth at 300 ppm (Botrytis cinerea [2])

CON(C(=O)c1cc2c(nc1Cl)CCC2)C(C)Cc1ccccc1F (stereo not shown) [Compound 254, 2-chloro-N-(1-(2-fluorophenyl)propan-2-yl)-N-methoxy-6,7-dihydro-5H-cyclopenta[b]pyridine-3-carboxamide]
≥ 70%: inhibition of growth at 300 ppm (Pyricularia oryzae) | inhibition of growth at 300 ppm (Botrytis cinerea [1]) | inhibition of growth at 300 ppm (Parastagonospora nodorum) | inhibition of growth at 300 ppm (Botrytis cinerea [2])
